Experimental data published in US20100143995A1, “Process for Fermentive Preparation of Alcohols and Recovery of Product” (E. I. DU PONT DE NEMOURS AND COMPANY, priority 2008, published 2010).

Key:
[1] = Extraction of ethanol from an aqueous solution by ionic liquid (HPLC); assay type: physicochemical; conditions: ethanol in aqueous solution after mixing 3 mL of about 31 g/L ethanol with 150 microliters (5 vol %) ionic liquid, overnight equilibration, control 655
Procedure: (§1) Ethanol and isobutanol concentration in the solution was measured using HPLC as described above following thorough mixing and overnight equilibration of the contents of the vial.

[2] = tested on: Saccharomyces cerevisiae (W1362 20A); test: Glucose Uptake Index of Saccharomyces cerevisiae culture in YPD medium with ionic liquid added; conditions: 5% (v/v) ionic liquid added after 4 h, further 16 h at 30° C., GUI of control without ionic liquid 79.0 (Ex. 1-5) or 100 (Ex. 6-8)
[3] = Extraction of isobutanol from an aqueous solution by ionic liquid (HPLC); assay type: physicochemical; conditions: isobutanol in aqueous solution after mixing 3 mL of about 31 g/L isobutanol with 150 microliters (5 vol %) ionic liquid, overnight equilibration, control 436
Procedure: as §1

Row | Compound | mM Ethanol [1] | GUI of Sample (Glucose Utilization Index in the presence of 5% (v/v) of the ionic liquid phase) [2] | mM isobutanol [3] | also measured
1 | 1-Butyl-3-methylimidazolium levulinate [Example 5] | 596 mM |  |  | 
2 | CCOCC[N+](C)(C)CCN1C(=O)CCC1C (centres unmarked) [Example 3, 1-(N,N,N-dimethyl(ethylethoxy)aminoethyl)-5-methyl-pyrrolidine-2-one bis(trifluoromethane)sulfonamide] |  | 80.4 |  | mM Ethanol ([1]; listed as [MeDMEEAP] [Tf2N]): 637 mM; mM isobutanol ([3]; listed as [MeDMEEAP] [Tf2N]): 398 mM
3 | CCOCC[N+](C)(C)CCN1C(=O)CCC1C (centres unmarked) [Example 2, 1-(N,N,N-dimethyl(ethylethoxy)aminoethyl)-5-methyl-pyrrolidine-2-one hexafluoropropanesulfonate] |  | 34.0 |  | mM Ethanol ([1]; listed as [MeDMEEAP] [HFPS]): 656 mM; mM isobutanol ([3]; listed as [MeDMEEAP] [HFPS]): 422 mM
4 | CCC[N+](C)(C)CCN1C(=O)CCC1C.O=S(=O)([N-]S(=O)(=O)C(F)(F)F)C(F)(F)F (centres unmarked) [Example 6, 1-(N,N,N-dimethylpropylaminoethyl)-5-methylpyrrolidone-2-one bis(trifluoromethane)sulfonamide] |  | 100 | 387 mM | 
5 | COCC[N+](C)(C)CCN1C(=O)CCC1C.O=S(=O)([N-]S(=O)(=O)C(F)(F)F)C(F)(F)F (centres unmarked) [Example 7, 1-(N,N,N-dimethyl(methylethoxy)aminoethyl)-5-methylpyrrolidone-2-one bis(trifluoromethane)sulfonamide] | 643 mM | 100 | 389 mM | 
6 | CC1CCC(=O)N1CC[N+](C)(C)CCO.O=S(=O)([N-]S(=O)(=O)C(F)(F)F)C(F)(F)F (centres unmarked) [Example 8, 1-(N,N,N-dimethyl(hydroxyethyl)aminoethyl)-5-methylpyrrolidone-2-one bis(trifluoromethane)sulfonamide] |  | 89.3 | 417 mM | 
7 | COCC[N+](C)(C)CCN1C(=O)CCC1C (centres unmarked) [Example 4, 1-(N,N,N-dimethyl(methylethoxy)aminoethyl)-5-methylpyrrolidin-2-one hexafluoropropanesulfonate] | 645 mM | 21.9 | 423 mM | 
